Assay results: PubChem BioAssay AID330 (DTP/NCI, 2004)
Several values for one entry are separate records, joined by “and”; a condition that tells them apart may be missing. Identical values can stand only once. Inconclusive results and toxic doses are left out. Rule for the calls: active = survival T/C of 150% or more; inactive = T/C below 125% in these data.

System: P388 leukemia ip, CD2F1 mice, survival T/C
Experiment: NCI In Vivo Anticancer Drug Screen. Data for tumor model P388 Leukemia (intraperitoneal) in CD2F1 (CDF1) mice
Conditions: endpoint: median survival time, higher = longer survival
Outline: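 Mice carrying the transplanted tumor received test compound or vehicle. Survival was recorded in each group, and the value is the treated-group measurement divided by that of the vehicle-treated control group.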

[1] = dose: 50.0 mg/kg/injection, schedule: Q01DX005 (ip), vehicle: saline with Tween-80
[2] = dose: 100.0 mg/kg/injection, schedule: Q01DX005 (ip), vehicle: saline with Tween-80
[3] = dose: 200.0 mg/kg/injection, schedule: Q01DX005 (ip), vehicle: saline with Tween-80
[4] = dose: 50.0 mg/kg/injection, schedule: Q01DX009 (ip), vehicle: saline
[5] = dose: 100.0 mg/kg/injection, schedule: Q01DX009 (ip), vehicle: saline
[6] = dose: 200.0 mg/kg/injection, schedule: Q01DX009 (ip), vehicle: saline
[7] = dose: 60.0 mg/kg/injection, schedule: Q01DX005 (ip), vehicle: saline with Tween-80
[8] = dose: 120.0 mg/kg/injection, schedule: Q01DX005 (ip), vehicle: saline with Tween-80
[9] = dose: 100.0 mg/kg/injection, schedule: Q04DX003 (ip), vehicle: saline with Tween-80

Measured: T/C

O=C1Nc2cc3c(cc2C(=O)N2C/C(=N/O)CC12)OCO3 (configuration not stated)
inactive: [1] 107 % of control | [2] 99 % of control | [3] 101 % of control

N#Cc1c(C(F)(F)F)cc(-c2cccs2)nc1SC(C(=O)Nc1cc(C(F)(F)F)cc(C(F)(F)F)c1)c1ccccc1 (configuration not stated)
inactive: dose: 50.0 mg/kg/injection, schedule: Q01DX005 (ip), vehicle: Klucel (hydroxypropylcellulose) (HPC) 106 % of control | dose: 100.0 mg/kg/injection, schedule: Q01DX005 (ip), vehicle: Klucel (hydroxypropylcellulose) (HPC) 88 % of control | dose: 200.0 mg/kg/injection, schedule: Q01DX005 (ip), vehicle: Klucel (hydroxypropylcellulose) (HPC) 90 % of control

CSCCCCCCCCCCSC
inactive: [4] 99 % of control | [5] 100 % of control | [6] 99 % of control

COC(=O)c1nc(N)nc(C(=O)OC)c1C(=O)c1cccs1
inactive: [7] 98 % of control | [8] 99 % of control

NCCSCCN
inactive: [4] 100 % of control | [5] 99 % of control | dose: 100.0 mg/kg/injection, schedule: Q03DX003 (ip), vehicle: saline 102 % of control | [6] 105 % of control | dose: 200.0 mg/kg/injection, schedule: Q03DX003 (ip), vehicle: saline 105 % of control | dose: 400.0 mg/kg/injection, schedule: Q03DX003 (ip), vehicle: saline 92 % of control

Cc1cc([Se][Se]c2cc(C)c(C)cc2[N+](=O)[O-])c([N+](=O)[O-])cc1C
inactive: [7] 92 % of control | [8] 93 % of control | dose: 240.0 mg/kg/injection, schedule: Q01DX005 (ip), vehicle: saline with Tween-80 91 % of control

CCOC(=O)[C@]12CCC[C@@]1(O)NC(=O)c1cnccc12
inactive: [9] 100 % of control | dose: 200.0 mg/kg/injection, schedule: Q04DX003 (ip), vehicle: saline with Tween-80 97 % of control | dose: 400.0 mg/kg/injection, schedule: Q04DX003 (ip), vehicle: saline with Tween-80 93 % of control

COc1ccc(/C=N\N=C(/[O-])c2ccccc2O)cc1.COc1ccc(/C=N\N=C(/[O-])c2ccccc2O)cc1.[Mn+2].[OH3+].[OH3+]
inactive: dose: 50.0 mg/kg/injection, schedule: Q04DX002 (ip), vehicle: saline with Tween-80 107 % of control | dose: 100.0 mg/kg/injection, schedule: Q04DX002 (ip), vehicle: saline with Tween-80 108 % of control | dose: 200.0 mg/kg/injection, schedule: Q04DX002 (ip), vehicle: saline with Tween-80 114 % of control

CC1=C2CC(C)(C)/C=C\C(=O)/C(C)=C\C3=CC(C)(O)CC3(O2)C1=O (configuration not stated)
inactive: dose: 0.92 mg/kg/injection, schedule: Q01DX009 (ip), vehicle: saline with Tween-80 102 % of control | dose: 1.25 mg/kg/injection, schedule: Q01DX009 (ip), vehicle: Klucel (hydroxypropylcellulose) (HPC) 109 % of control | dose: 1.84 mg/kg/injection, schedule: Q01DX009 (ip), vehicle: saline with Tween-80 98 % of control | dose: 2.5 mg/kg/injection, schedule: Q01DX009 (ip), vehicle: Klucel (hydroxypropylcellulose) (HPC) 120 % of control | dose: 3.67 mg/kg/injection, schedule: Q01DX009 (ip), vehicle: saline with Tween-80 116 % of control | dose: 5.0 mg/kg/injection, schedule: Q01DX009 (ip), vehicle: Klucel (hydroxypropylcellulose) (HPC) 118 % of control | dose: 7.34 mg/kg/injection, schedule: Q01DX009 (ip), vehicle: saline with Tween-80 118 % of control | dose: 10.0 mg/kg/injection, schedule: Q01DX009 (ip), vehicle: Klucel (hydroxypropylcellulose) (HPC) 120 % of control

N#CCCN(CCC#N)Cc1c(O)c(O)c(CN(CCC#N)CCC#N)c2ccccc12
inactive: [1] 102 % of control and 105 % of control | [2] 115 % of control and 118 % of control | [3] 122 % of control and 124 % of control

CP1(C)=NP(C)(C)=NP(C)(C)=NP(C)(C)=N1.[Cl][Pt]([Cl])([Cl])[Cl]
inactive: dose: 6.25 mg/kg/injection, schedule: Q04DX003 (ip), vehicle: saline with Tween-80 106 % of control | dose: 12.5 mg/kg/injection, schedule: Q04DX003 (ip), vehicle: saline with Tween-80 106 % of control and 107 % of control | dose: 25.0 mg/kg/injection, schedule: Q04DX003 (ip), vehicle: saline with Tween-80 110 % of control | dose: 50.0 mg/kg/injection, schedule: Q04DX003 (ip), vehicle: saline with Tween-80 120 % of control and 122 % of control | [9] 118 % of control
